{
  "source": "patent US20170001988A1",
  "about": "“PIPERIDINE AND PIPERAZINE DERIVATIVES AND THEIR USE IN TREATING VIRAL INFECTIONS AND CANCER” (THE UNITED STATES OF AMERICA, AS REPRESENTED BY THE …, priority 2013, published 2017)",
  "key": {"[1]": {"system": "HCVcc, genotype 2a, JFH-1 strain", "assay": "HCVcc assay, extracellular and intracellular viral RNA by quantitative real-time PCR", "type": "cell-based, HCV", "details": "at the highest concentration", "description": "Huh 7.5.1 cells were seeded in 12-well plates (10^5 cells/well) and cultured overnight. HCVcc was used to infect the cells with the treatment of compounds at 10 μM. Virus-containing medium was removed after 4 h incubation and compound treatment was added back followed by incubation for additional 48 h. Intracellular and extracellular viral RNA levels were evaluated by quantitative real-time PCR. The results are illustrated in FIG. 1 and are the means of three replicates ±SEM. […] Cyclosporin A at 10 μM was used as positive control.\nCell Culture-derived HCV (HCVcc, genotype 2a, JFH-1 strain) system provides direct evidence of anti-HCV activity of the compounds.\n(§1) Cell Culture-derived HCV (HCVcc, genotype 2a, JFH-1 strain) system provides direct evidence of anti-HCV activity of the compounds. Determination of both extracellular and intracellular HCV levels can help evaluate whether the compounds interfere early-stage or late-stage infection. […] Cyclosporin A was tested in parallel to serve as control compound targeting early-stage HCV infection. […] At the highest concentration, cyclosporin A caused approximately 4-log fold reduction in intracellular RNA copies, while the extracellular level reduced less than […]. On the contrary, NCGC00345021 led to only about 1-log fold decrease in intracellular RNA copies when causing 3-log fold reduction in extracellular RNA level. Clearly, when the concentration increased, NCGC00345021 led to a more dramatic reduction in extracellular RNA copies."}, "[2]": {"system": "HCVcc, genotype 2a, JFH-1 strain", "assay": "TCID50 determination: re-infection of naive Huh 7.5.1 cells with medium from the HCVcc assay", "type": "cell-based, HCV", "details": "medium with extracellular virus used to re-infect naive Huh 7.5.1 cells", "description": "FIG. 4B illustrates the TCID50 of naïve Huh 7.5.1 cells that were infected using medium collected in the HCVcc assay run using 0.32, 1.0, and 3.2 μM concentrations of NCGC00345021 and 0.032, 0.10 and 0.32 μM concentrations of Cyclosporin A.\nas §1"}, "[3]": {"system": "HCVsc, genotype 2a", "type": "cell-based, HCV"}, "[4]": {"system": "HCV replicon GT 2a", "type": "cell-based"}, "[5]": {"system": "GT 2a replicon RNA", "assay": "Transient replicon assay, GT 2a", "type": "cell-based, HCV"}, "[6]": {"system": "HCVpp GT 1a", "type": "cell-based, HCV"}, "[7]": {"system": "VSVpp", "type": "cell-based"}, "[8]": {"system": "HCV-Luc", "assay": "HCV-Luc infection assay", "type": "cell-based", "details": "Hepatitis C virus; at 10 nM"}, "[9]": {"system": "Dengue RVP", "assay": "Dengue Reporter Virus Particles (RVPs) reproducibility assay", "details": "increasing concentrations; Huh 7.5.1 cells; luciferase 48 h", "experimental": "Huh 7.5.1 cells seeded in 96-well plates (10^4 cells/well) were cultured overnight. […] The results are means of three replicates ±SEM."}},
  "data": [
    {"smiles": "COc1ccc(CN2CCC(N(CCc3ccccc3)Cc3ccccc3)CC2)c(OC)c1", "note": "[NCGC00345021, N-Benzyl-1-(2,4-dimethoxybenzyl)-N-phenethylpiperidin-4-amine]", "values": [
      {"measurement": "reduction in extracellular RNA level", "setting": "[1]", "value": 3, "unit": "log fold"},
      {"measurement": "reduction in intracellular RNA copies", "setting": "[1]", "value": "about 1 log fold"},
      {"measurement": "TCID50 values", "setting": "[2]", "value": "dose-dependent reduction"},
      {"measurement": "inhibitory activity in the HCVsc infection level", "setting": "[3]; 10 μM, Huh 7.5.1 cells, luciferase 48 h", "value": "no significant inhibitory activities"},
      {"measurement": "% RLU at 10 μM, HCVsc", "setting": "[3]; mean of five replicates ±SEM", "value": "104 ± 9.95", "unit": "% RLU"},
      {"measurement": "inhibitory effect in replicon GT 2a cell line", "setting": "[4]; 10 μM, luciferase 48 h", "value": "did not show any inhibitory effect"},
      {"measurement": "% RLU at 10 μM, HCV subgenomic replicon GT 2a cell line", "setting": "[4]; mean of five replicates ±SEM", "value": "54.4 ± 2.96", "unit": "% RLU"},
      {"measurement": "inhibition of viral replication, transient GT 2a replicon", "setting": "[5]; 10 μM, Huh 7.5.1 cells", "value": "modest inhibition"},
      {"measurement": "% RLU at 10 μM, HCV subgenomic replicon Transient GT 2a", "setting": "[5]; mean of five replicates ±SEM", "value": "139 ± 16.4", "unit": "% RLU"},
      {"measurement": "inhibitory activity in HCVpp GT 1a", "setting": "[6]; 10 μM, Huh 7.5.1 cells", "value": "low inhibitory activity"},
      {"measurement": "% RLU at 10 μM, HCVpp GT 1a", "setting": "[6]; mean of five replicates ±SEM", "value": "66.3 ± 9.49", "unit": "% RLU"},
      {"measurement": "% RLU at 10 μM, VSVpp", "setting": "[7]", "value": "103 ± 6.73", "unit": "% RLU"},
      {"measurement": "inhibition on VSVpp", "setting": "[7]; 10 μM", "value": "no inhibition"},
      {"measurement": "inhibition at 0.01 µM", "setting": "[8]", "value": "> 90", "unit": "%"},
      {"measurement": "Dengue RVP reproducibility", "setting": "[9]", "value": "dose-dependent inhibition"}
    ]}
  ]
}
